The text below walks through data of publication PMC3543423, “Structure Prediction and Validation of the ERK8 Kinase Domain” (PLoS ONE, 2013).

The target of the assay is T1, ERK8 (Homo sapiens, UniProt Q8TD08).
T1 construct: gene MAPK15; full-length GST-ERK8 (baculovirus-expressed, GST-ERK8Bac)
T1 sequence (Q8TD08 1-544): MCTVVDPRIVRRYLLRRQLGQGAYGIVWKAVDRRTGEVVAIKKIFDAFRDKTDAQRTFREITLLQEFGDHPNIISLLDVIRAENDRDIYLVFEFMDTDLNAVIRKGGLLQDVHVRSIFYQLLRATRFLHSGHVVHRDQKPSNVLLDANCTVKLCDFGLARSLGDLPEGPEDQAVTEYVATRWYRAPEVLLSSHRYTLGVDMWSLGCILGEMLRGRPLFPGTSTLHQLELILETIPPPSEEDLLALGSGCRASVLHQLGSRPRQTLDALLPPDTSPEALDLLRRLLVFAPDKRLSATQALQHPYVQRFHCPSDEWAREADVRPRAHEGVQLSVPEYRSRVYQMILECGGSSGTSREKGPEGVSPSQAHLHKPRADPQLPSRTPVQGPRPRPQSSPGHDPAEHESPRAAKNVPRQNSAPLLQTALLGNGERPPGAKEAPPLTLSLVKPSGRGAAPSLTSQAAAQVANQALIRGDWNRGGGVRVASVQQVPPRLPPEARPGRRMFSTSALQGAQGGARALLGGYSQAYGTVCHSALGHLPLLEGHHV
The experiment in a line: radiometric [γ-32P]ATP kinase assay with MBP substrate, dose/response; ATP competition; reduced inhibition of F92I mutant. Type of assay: biochemical.

The molecule `COc1ccccc1NC(=O)c1cccc(Nc2nc(-c3ccccc3)c3cc(Br)ccc3n2)c1` [ITT57] came in with an IC50 of 17 µM.
`CCOC(=O)c1c(C(=O)CSc2nc(-c3ccccc3)cc(-c3ccc(OC)cc3)c2C#N)sc2c1CCCC2` [ITT53] yielded an IC50 of 27 µM. Against the preceding molecule, the IC50 is about 1.6-fold higher.
